Measured values: BindingDB's records for doi:10.1021/jm00081a009 (Glaxo Group Research, 1992)

Experiments:
[1] = Opioid receptor kappa agonist potency was determined in vitro using rabbit vas deferens(LVD) preparation
[2] = Kappa-opioid receptor agonist potency in vitro using rabbit vas deferens(LVD) preparation

Molecule `O=C(Cc1ccc(Cl)c(Cl)c1)N1CCCCC1CN1CCC(O)C1` (stereo not drawn) has an IC50 [1] of 0.00088 µM.

In the case of `NC(=O)[C@@H]1CCN(C(=O)Cc2ccc(Cl)c(Cl)c2)[C@H](CN2CCCC2)C1`, the IC50 [2] is reported as 1.2 µM.

`O=C(Cc1ccc(Cl)c(Cl)c1)N1CC2(CC[C@H]1CN1CCCC1)OCCO2` gave an IC50 [2] of 0.16 µM.

Molecule `COC(=O)/C=C1\CCN(CC2CCCCN2C(=O)Cc2ccc(Cl)c(Cl)c2)C1` (stereo not drawn) has an IC50 [1] of 1.02 µM.

`COC(=O)[C@@H]1CCN(C(=O)Cc2ccc(Cl)c(Cl)c2)[C@H](CN2CCCC2)C1` showed an IC50 [1] of 0.25 µM.

`COC(=O)[C@H]1CC[C@@H](CN2CCCC2)N(C(=O)Cc2ccc(Cl)c(Cl)c2)C1` showed an IC50 [2] of 0.3 µM.

`O=C(Cc1ccc(Cl)c(Cl)c1)N1CCC[C@@H](O)[C@H]1CN1CCCC1` gave an IC50 [1] of 0.59 µM.

Molecule `C=C1CCN(CC2CCCCN2C(=O)Cc2ccc(Cl)c(Cl)c2)C1` (stereo not drawn) has an IC50 [1] of 0.029 µM.

Work on `O=C1CCN(C(=O)Cc2ccc(Cl)c(Cl)c2)C(CN2CCCC2)C1` (stereo not drawn) yielded an IC50 [1] of 0.046 µM.

Work on `C=CCC1(CN2CCCC2)CCCCN1C(=O)Cc1ccc(Cl)c(Cl)c1` (stereo not drawn) yielded an IC50 [1] greater than 10 µM.

`O=C(Cc1ccc(Cl)c(Cl)c1)N1CCCCC1CN1CCCCC1` (stereo not drawn) showed an IC50 [1] of 0.26 µM.

For `NC(=O)[C@H]1CC[C@@H](CN2CCCC2)N(C(=O)Cc2ccc(Cl)c(Cl)c2)C1`, the IC50 [2] was greater than 10 µM.

Work on `CC1(CN2CCCC2)CCCCN1C(=O)Cc1ccc(Cl)c(Cl)c1` (stereo not drawn) yielded an IC50 [1] greater than 10 µM.

`O=C(Cc1ccc(Cl)c(Cl)c1)N1CCCCC1CN1CCCO1` (stereo not drawn) showed an IC50 [2] of 0.069 µM.

`O=C1CC[C@@H](CN2CCCC2)N(C(=O)Cc2ccc(Cl)c(Cl)c2)C1` showed an IC50 [2] of 0.39 µM.

For `C[C@H]1CCC[C@@H](CN2CCCC2)N1C(=O)Cc1ccc(Cl)c(Cl)c1`, the IC50 [1] was 0.0017 µM.

`COC(=O)C1=CCCN(CC2CCCCN2C(=O)Cc2ccc(Cl)c(Cl)c2)C1` (stereo not drawn) gave an IC50 [2] of 0.015 µM.

Molecule `O=C(Cc1ccc(Cl)c(Cl)c1)N1CCC2(CC1CN1CCCC1)SCCS2` (stereo not drawn) has an IC50 [1] of 0.005 µM.

With `COC(=O)[C@@H]1CCC[C@@H](CN2CCCC2)N1C(=O)Cc1ccc(Cl)c(Cl)c1` the IC50 [2] was 0.11 µM.

`O=C(Cc1ccc(Cl)c(Cl)c1)N1CC[C@H](O)C[C@H]1CN1CCCC1` showed an IC50 [1] of 1.4 µM.

`NC(=O)[C@H]1CCC[C@@H](CN2CCCC2)N1C(=O)Cc1ccc(Cl)c(Cl)c1` gave an IC50 [2] greater than 10 µM.

`O=C1CCCN(C(=O)Cc2ccc(Cl)c(Cl)c2)C1CN1CCCC1` (stereo not drawn) showed an IC50 [2] of 2 µM.

In the case of `O=C(Cc1ccc(Cl)c(Cl)c1)N1CCCCC1CN1CC=CCC1` (stereo not drawn), the IC50 [2] is reported as 0.0063 µM.
